This assay concerns Doxorubicin aptamer (DNA, aptamer) ACCATCTGTGTAAGGGGTAAGGGGTGGT
Put plainly: electrochemical aptamer-based sensor, square-wave voltammetry (KDM), Hill fit. To be noted: 37 °C; in serum; apparent; immobilised aptamer; 8 devices.

Consider `COc1cccc2c1C(=O)c1c(O)c3c(c(O)c1C2=O)C[C@@](O)(C(=O)CO)C[C@@H]3O[C@H]1C[C@H](N)[C@H](O)[C@H](C)O1`, for which the Kd was 5 µM.

Values taken from paper PMC11838736 (2025).
